Reference: patent US20150337013A1, “NOVEL ANTIBACTERIAL AGENTS FOR THE TREATMENT OF GRAM POSITIVE INFECTIONS” (priority 2008, published 2015)
Where two headings read alike, the source gives them in different places.

Tests used:
[1] = system: Enterococcus faecium EFM.384, Daptomycin resistant mutant (14-A); type: cell-based; settings: MHBc with 50 mg/L calcium, 18-20 hours at 37° C.
In short: (§1)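 MIC in μg/mL, taken as the lowest compound concentration producing no visible turbidity after 18-20 hours at 37° C with shaking at 200 rpm. Organisms were grown in calcium-supplemented (50 mg/L) Mueller Hinton broth at 5×10^5 bacteria per well.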

[2] = system: Staphylococcus aureus SAU.278, Daptomycin resistant mutant (D10); type: cell-based; settings: MHBc with 50 mg/L calcium, 18-20 hours at 37° C.
In short: as §1

[3] = system: Enterococcus faecalis EFS.312, Daptomycin resistant mutant (EFA); type: cell-based; settings: MHBc with 50 mg/L calcium, 18-20 hours at 37° C.
In short: as §1

[4] = system: Staphylococcus aureus SAU.399 (ATCC 43300), Methicillin and Oxacillin Resistant; type: cell-based
In short: as §1

[5] = system: Enterococcus faecium EFM.14 (ATCC 6569); type: cell-based
In short: as §1

[6] = system: Staphylococcus aureus SAU.42 (ATCC 29213); type: cell-based
In short: as §1

[7] = system: Enterococcus faecalis EFS.201 (ATCC 49452); type: cell-based
In short: as §1

[8] = MHBc with 50 mg/L calcium, 18-20 hours at 37° C.

SMILES: CCCOc1ccc(-c2ccc(C(=O)N[C@@H](Cc3c[nH]c4ccccc34)C(=O)N[C@H](CC(N)=O)C(=O)N[C@@H](CC(=O)O)C(=O)N[C@@H]3C(=O)NCC(=O)N[C@@H](CCCN)C(=O)N[C@@H](CC(=O)O)C(=O)N[C@H](C)C(=O)N[C@@H](CC(=O)O)C(=O)NCC(=O)N[C@H](CO)C(=O)N[C@@H]([C@H](C)CC(=O)O)C(=O)N[C@@H](CC(=O)c4ccccc4N)C(=O)O[C@@H]3C)cc2)cc1 [Compound 59]
- C. diff MIC90 (Clostridium difficile): 4 µg/mL
- Efm384 MIC [1]: 32 µg/mL
- Sa278 MIC [2]: 4 µg/mL
- Efs312 MIC [3]: >32 µg/mL
- Sa399 MIC ([4]; ATCC 43300): 0.5 µg/mL
- Efm14 MIC ([5]; ATCC 6569): 4 µg/mL
- Sa42 MIC ([6]; ATCC 29213): 0.5 µg/mL
- Efs201 MIC ([7]; ATCC 49452): 4 µg/mL

SMILES: CCCCCCCOc1ccc(-c2ccc(C(=O)N[C@@H](Cc3c[nH]c4ccccc34)C(=O)N[C@H](CC(N)=O)C(=O)N[C@@H](CC(=O)O)C(=O)N[C@@H]3C(=O)NCC(=O)N[C@@H](CCCN)C(=O)N[C@@H](CC(=O)O)C(=O)N[C@H](C)C(=O)N[C@@H](CC(=O)O)C(=O)NCC(=O)N[C@H](CO)C(=O)N[C@@H]([C@H](C)CC(=O)O)C(=O)N[C@@H](CC(=O)c4ccccc4N)C(=O)O[C@@H]3C)cc2)cc1 [Compound 63]
- C. diff MIC90 (Clostridium difficile): 2 µg/mL
- Efm384 MIC [1]: 1 µg/mL
- Sa278 MIC [2]: 0.25 µg/mL
- Efs312 MIC [3]: 4 µg/mL
- Sa399 MIC [4, 8]: 0.25 µg/mL
- Efm14 MIC [5, 8]: 1 µg/mL
- Sa42 MIC [6, 8]: 0.25 µg/mL
- Efs201 MIC [7, 8]: 0.5 µg/mL

SMILES: CCCCCCCCOc1ccc(-c2ccc(C(=O)N[C@@H](Cc3c[nH]c4ccccc34)C(=O)N[C@H](CC(N)=O)C(=O)N[C@@H](CC(=O)O)C(=O)N[C@@H]3C(=O)NCC(=O)N[C@@H](CCCN)C(=O)N[C@@H](CC(=O)O)C(=O)N[C@H](C)C(=O)N[C@@H](CC(=O)O)C(=O)NCC(=O)N[C@H](CO)C(=O)N[C@@H]([C@H](C)CC(=O)O)C(=O)N[C@@H](CC(=O)c4ccccc4N)C(=O)O[C@@H]3C)cc2)cc1 [Compound 64]
- C. diff MIC90 (Clostridium difficile): 1 µg/mL
- Efm384 MIC [1]: 4 µg/mL
- Sa278 MIC [2]: 0.5 µg/mL
- Efs312 MIC [3]: 16 µg/mL
- Sa399 MIC [4, 8]: 0.25 µg/mL
- Efm14 MIC [5, 8]: 1 µg/mL
- Sa42 MIC [6, 8]: 0.125 µg/mL
- Efs201 MIC [7, 8]: 0.5 µg/mL

SMILES: C[C@H](CC(=O)O)[C@@H]1NC(=O)[C@@H](CO)NC(=O)CNC(=O)[C@H](CC(=O)O)NC(=O)[C@@H](C)NC(=O)[C@H](CC(=O)O)NC(=O)[C@H](CCCN)NC(=O)CNC(=O)[C@@H](NC(=O)[C@H](CC(=O)O)NC(=O)[C@@H](CC(N)=O)NC(=O)[C@H](Cc2c[nH]c3ccccc23)NC(=O)Cc2ccc(-c3ccccc3)cc2)[C@@H](C)OC(=O)[C@H](CC(=O)c2ccccc2N)NC1=O [Compound 66]
- C. diff MIC90 (Clostridium difficile): 8 µg/mL
- Efm384 MIC [1]: >32 µg/mL
- Sa278 MIC [2]: >32 µg/mL
- Efs312 MIC [3]: >32 µg/mL
- Sa399 MIC [4, 8]: 8 µg/mL
- Efm14 MIC [5, 8]: >32 µg/mL
- Sa42 MIC [6, 8]: 8 µg/mL
- Efs201 MIC [7, 8]: >32 µg/mL

SMILES: C[C@H](CC(=O)O)[C@@H]1NC(=O)[C@@H](CO)NC(=O)CNC(=O)[C@H](CC(=O)O)NC(=O)[C@@H](C)NC(=O)[C@H](CC(=O)O)NC(=O)[C@H](CCCN)NC(=O)CNC(=O)[C@@H](NC(=O)[C@H](CC(=O)O)NC(=O)[C@@H](CC(N)=O)NC(=O)[C@H](Cc2c[nH]c3ccccc23)NC(=O)C2CCC(c3ccc(Cl)cc3)CC2)[C@@H](C)OC(=O)[C@H](CC(=O)c2ccccc2N)NC1=O (stereo partly shown) [Compound 67]
- C. diff MIC90 (Clostridium difficile): 4 µg/mL
- Efm384 MIC [1]: >32 µg/mL
- Sa278 MIC [2]: 4 µg/mL
- Efs312 MIC [3]: >32 µg/mL
- Sa399 MIC ([4]; ATCC 43300): 4 µg/mL
- Efm14 MIC ([5]; ATCC 6569): 8 µg/mL
- Sa42 MIC ([6]; ATCC 29213): 0.5 µg/mL
- Efs201 MIC ([7]; ATCC 49452): 4 µg/mL
